For 56 compounds, IC50 results are on record in ChEMBL document CHEMBL6096679, “Recent Progress in the Development of Glucose Transporter (GLUT) Inhibitors” (J Med Chem, 2025).

For orientation: IC50 means the concentration needed to halve the response being measured.

The target of the first test is T1, Solute carrier family 2, facilitated glucose transporter member 9 (Homo sapiens, UniProt Q9NRM0).
T1 sequence (Q9NRM0 whole entry): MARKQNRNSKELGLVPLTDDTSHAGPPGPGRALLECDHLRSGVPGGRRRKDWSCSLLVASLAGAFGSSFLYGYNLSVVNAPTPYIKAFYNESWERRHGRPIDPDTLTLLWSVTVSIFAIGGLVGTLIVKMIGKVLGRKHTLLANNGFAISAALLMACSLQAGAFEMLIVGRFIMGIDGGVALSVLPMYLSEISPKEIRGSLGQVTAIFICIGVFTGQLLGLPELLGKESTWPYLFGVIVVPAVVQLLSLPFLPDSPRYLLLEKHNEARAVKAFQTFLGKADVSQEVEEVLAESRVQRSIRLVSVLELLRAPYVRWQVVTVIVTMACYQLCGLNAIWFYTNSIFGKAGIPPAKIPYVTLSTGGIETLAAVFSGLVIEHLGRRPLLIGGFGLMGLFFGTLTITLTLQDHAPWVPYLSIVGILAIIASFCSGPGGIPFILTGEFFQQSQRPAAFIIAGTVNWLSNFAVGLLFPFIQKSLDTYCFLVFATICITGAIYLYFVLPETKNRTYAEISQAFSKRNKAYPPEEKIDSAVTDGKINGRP
The experiment in a line: Inhibition of GLUT9 (unknown origin) overexpressed in uric acid-induced HEK293 cells by patch clamp analysis. Format: cell-based.
Settings: not given
On the technique in general: The patch-clamp technique gives a direct electrical read-out from membranes.
For the compound `C=C1[C@@H](C)[C@H]2[C@H](Cc3ccccc3)NC(=O)[C@]23OC(=O)/C=C/[C@H](O)CCC[C@@H](C)C/C=C/[C@H]3[C@@H]1O` [CYTOCHALASIN B], the IC50 was 0.44 µM. The compound `CCOc1cccc2c1O[C@]1(C)C[C@@H]2NC(=O)N1c1cccc(C(=O)NCCc2ccc(C)cc2)c1` displayed an IC50 of 0.32 µM. On the same count and under the same terms, the result for `COc1cc(/C=C/C(=O)CC(=O)/C=C/c2ccc(O)c(OC)c2)ccc1O` [CURCUMIN] reads 19 µM.

`CCOC(=O)Cn1c2c(c3ccccc31)C[C@@H]1C[C@@H]2[C@H](OC)CN1C(=O)c1cccnc1SC` showed an IC50 of 11.4 µM.

`O=c1cc(-c2ccc(O)cc2)oc2cc(O)cc(O)c12` [APIGENIN] returned an IC50 of 2.63 µM. Still for that read-out and setting: the result for `O=C(CCc1ccc(O)cc1)c1c(O)cc(O)cc1O` [PHLORETIN] reads 49 µM.

In another test the test system is A549. As to the kind of experiment: Inhibition of glycolysis in human A549 cells assessed as decrease in HK2 activity incubated for 48 hrs by spectrophotometric assay. The class given is functional, cell-based. The conditions noted are these: A549, 48 h.
Take `O=C(COc1cccc(-c2nc3c(c(Nc4ccc(-c5cn[nH]c5)cc4)n2)COC3)c1)NC1CCCC1`: the IC50 was less than 0.1 µM.

Take `CC(C)NC(=O)COc1cccc(-c2nc(Nc3ccc(-c4cn[nH]c4)cc3)c3sccc3n2)c1`: the 50% inhibitory concentration (IC50) is less than 0.1 µM. Still for that read-out and setting: the result for `O=C(COc1cccc(-c2nc3c(c(Nc4ccc(-c5cn[nH]c5)cc4)n2)COC3)c1)NC1CCC1` reads less than 0.1 µM. In the case of `O=C(COc1cccc(-c2nc(Nc3ccc(-c4cn[nH]c4)cc3)c3sccc3n2)c1)NC1CCCC1`, the IC50 is less than 0.1 µM. Regarding `CC(C)NC(=O)COc1cccc(-c2nc3c(c(Nc4ccc(-c5cn[nH]c5)cc4)n2)COC3)c1`, the IC50 is less than 0.1 µM. As to `CCCCC1C(=O)NC2Cc3cccc4ccc(cc34)N1C(=O)COc1cccc(c1)[C@@H](CCc1ccc(OC)c(OC)c1)OC(=O)C1CCCCN1C(=O)C(=O)C(C)(C)COC(=O)/C=C\CCN(C)C(=O)CNC(=O)C(COC(C)(C)C)N(C)C2=O` (stereo partly drawn), the IC50 was less than 0.1 µM.

System in a further test: not listed separately
As to the kind of experiment: Induction of GLUT1 translocation in mouse 3T3-L1 cells by Western blot analysis. The class given is cell-based.
Settings: not given
`CCOc1ccc2nc(-c3cccc(OCC(=O)NC(C)C)c3)nc(Nc3ccc(-c4cn[nH]c4)cc3)c2c1`: it took 0.115 µM to reach half-maximal inhibition (IC50). Take `O=C(CN1C(=O)S/C(=C/c2ccco2)C1=O)Nc1ccc(Cl)c(Cl)c1`: half-maximal inhibition (IC50) required 14.7 µM.

In turn, `O=C(CN1C(=O)S/C(=C/c2ccco2)C1=O)Nc1nc2ccccc2s1` yielded an IC50 of 11.4 µM. `CCC(C)[C@H]1C(=O)NCC(=O)N(C)CC/C=C/C(=O)OCC(C)(C)C(=O)C(=O)N2CCCC[C@H]2C(=O)O[C@H](CCc2ccc(OC)c(OC)c2)c2cccc(c2)NC(=O)CCC(=O)N(C)[C@@H](CC(C)C)C(=O)N[C@H](Cc2ccccc2)C(=O)N1C` (stereo partly drawn) came in with an IC50 of 0.078 µM.

Compound `COc1ccc(CC(=O)N[C@@H](Cc2cccc(Br)c2)C(=O)N[C@@H](C)c2ccccc2)cc1` had an IC50 of 0.00014 µM. Same read-out and setting: the result for `O=C(CN1C(=O)S/C(=C/c2ccc(F)cc2)C1=O)Nc1cccc(C(F)(F)F)c1` reads 26.6 µM.

On to `Cc1ccc(CNc2ccc(Cl)cc2NCc2ccc(C)c(O)c2)cc1O`, for which the IC50 was found to be 2.6 µM. For `C[C@H](NC(=O)[C@H](Cc1ccc(F)cc1)NC(=O)Cc1cccc(O)c1)c1ccccc1`, the IC50 worked out at 0.0002 µM. The compound `C[C@@]1(C(=O)NCc2cccnc2)Cn2nc(-c3ccccc3)cc2C(=O)N1Cc1ccc(N2CCOCC2)cc1` showed an IC50 of 0.0062 µM. Consider `COc1ccccc1N1CCN(c2ncnc3c2cnn3-c2cc(F)cc(F)c2)CC1`, for which the midpoint of inhibition, the IC50, lay at 9e-05 µM. For `O=C(CN1C(=O)S/C(=C/c2ccccc2)C1=O)Nc1nc2c(Cl)cccc2s1`, the IC50 was found to be 12.6 µM. Same read-out and setting: the result for `O=C(CN1C(=O)S/C(=C/c2ccc(Cl)cc2)C1=O)Nc1ccc(Cl)cc1C(F)(F)F` reads 5.4 µM.

System in the next test: not listed separately
As to the kind of experiment: Induction of GLUT4 translocation in mouse 3T3-L1 cells Cytosol by Western blot analysis. Format: subcellular.
Settings: not given
In turn, `Cc1cc(NC(=O)CCC2Cc3ccccc3NC2=O)nc(-c2ccccc2)n1` (stereo not drawn) registered an IC50 of 3.88 µM.

`CC(=O)Nc1ccc(S(=O)(=O)Nc2ccc(Nc3cc(N(C)C)nc(C)n3)cc2)cc1` gave an IC50 of 7.01 µM. Same read-out and setting: the result for `Cc1ccccc1CN(Cc1nnc(C(C)(C)C)o1)c1ccc2nc(O)[nH]c2c1` reads 6.94 µM; that for `CS(=O)(=O)c1ccc(Nc2ccc3c(c2)OCO3)c([N+](=O)[O-])c1`, 5.8 µM.

For the next test, the system named is 3T3-L1. As to the kind of experiment: Induction of glucose uptake in mouse 3T3-L1 cells assessed as increase in glucose uptake. The class given is functional, cell-based.
Settings: not given
Consider `CC/C=C\C/C=C\C/C=C\C/C=C\C/C=C\C/C=C\CCC(=O)O` [DOCONEXENT], for which the IC50 worked out at 0.8 µM. Same read-out and setting: the result for `CC(=O)CC(=O)Nc1ccc(Cl)c(C(F)(F)F)c1` reads 68 µM; that for `OC[C@H]1O[C@](O)(CO)[C@@H](O)[C@@H]1O`, 3.9 µM. Same read-out and setting: the result for `O=C(Nc1ccc(Cl)c(C(F)(F)F)c1)c1ccc(Cl)cc1` reads 61 µM; that for `FC(F)(F)c1cc(NC(=S)NCc2ccccc2)ccc1Cl`, 61 µM.

For the compound `COc1ccc(CN(CC[C@@H](c2ccccc2)[C@H]2CCOC(C)(C)C2)C(=O)c2ccco2)cc1OC`, the IC50 came out at 0.11 µM. The same measure, in the same setting: the figure for `O=C1CC(c2ccc(-c3cc[nH]n3)s2)c2cc(N3CCNC3=O)ccc2N1` (stereo not drawn) is 33 µM; for `O=C(Oc1cccc(OC(=O)c2cccc(O)c2)c1OC(=O)c1cccc(O)c1)c1cccc(O)c1` it is 0.3 µM; for `O=C1CC(c2cccc3[nH]ccc23)c2ccc(NC(=O)c3cccnc3)cc2N1` (stereo not drawn) it is 28 µM. On the same count and under the same terms, the result for `N[C@H]1C(O)O[C@H](CO)[C@@H](O)[C@@H]1O` (stereo partly drawn) [GLUCOSAMINE] reads 0.9 µM. As to `OC[C@H]1OC(O)[C@H](O)[C@@H](O)[C@@H]1O` (stereo partly drawn) [DEXTROSE], the IC50 stood at 1.4 µM. On the same count and under the same terms, the result for `O=C(Oc1cccc(F)c1OC(=O)c1cccc(O)c1)c1cccc(O)c1` reads 0.5 µM. Regarding `O=C(Oc1cccc(OC(=O)c2cc(O)c(O)c(O)c2)c1OC(=O)c1cc(O)c(O)c(O)c1)c1cc(O)c(O)c(O)c1`, the IC50 came out at 5 µM.

In another test the target is T2, Solute carrier family 2, facilitated glucose transporter member 1 (Homo sapiens, UniProt P11166).
T2 sequence (P11166 whole entry): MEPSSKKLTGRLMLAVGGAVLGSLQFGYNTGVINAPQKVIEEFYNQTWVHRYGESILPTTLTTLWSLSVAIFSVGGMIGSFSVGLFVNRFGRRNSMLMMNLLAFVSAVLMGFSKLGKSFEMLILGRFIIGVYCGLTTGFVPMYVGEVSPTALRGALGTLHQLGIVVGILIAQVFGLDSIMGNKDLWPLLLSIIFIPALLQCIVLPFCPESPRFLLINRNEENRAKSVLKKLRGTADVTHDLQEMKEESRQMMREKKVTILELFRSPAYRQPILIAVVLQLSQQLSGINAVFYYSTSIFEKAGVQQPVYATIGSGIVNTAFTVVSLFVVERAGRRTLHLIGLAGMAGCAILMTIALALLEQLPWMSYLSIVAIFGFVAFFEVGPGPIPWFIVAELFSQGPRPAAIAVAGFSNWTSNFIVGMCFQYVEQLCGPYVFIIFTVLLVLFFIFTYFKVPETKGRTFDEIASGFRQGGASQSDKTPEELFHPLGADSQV
The experiment in a line: Inhibition of GLUT1 in human wild-type DLD-1 cells assessed as reduction in ATP level measured after 90 mins by Celltiter-glo luminescent assay. The class given is cell-based.
Settings: not given
On the technique in general: Cellular ATP, detected with luciferase, serves as a proxy for viable cell number.
Turning to `Cc1cccc(NC(=O)CN2C(=O)N/C(=C/c3cc(C)n(-c4ccc(O)cc4)c3C)C2=O)c1`, the IC50 worked out at 10.6 µM. Take `CCOc1cccc2c1O[C@]1(C)C[C@@H]2NC(=O)N1c1cccc(C(=O)NCCc2ccc(C)cc2)c1`: the IC50 stood at 0.162 µM. Consider `Cc1nn(C(=O)c2ccncc2)c(C)c1/N=N/c1ccc(Cl)cc1`, for which the IC50 was found to be 11.1 µM. Still for that read-out and setting: the result for `COc1ccc(C2=CC(c3ccc(F)cc3)N(C(=O)CSc3c(C)[nH]c4ccccc34)N2)cc1` (stereo not drawn) reads 0.61 µM; that for `CC(C)(C)c1ccc(S(=O)(=O)NCc2ccc(C(=O)Nc3cccnc3)cc2)cc1`, 1 µM. With `COc1ccc(-c2ccc(/C(C)=N/O)c(O)c2Cl)cc1`, the IC50 is 1.67 µM. Same read-out and setting: the figure for `CCOC(=O)Cn1c2c(c3ccccc31)C[C@@H]1C[C@@H]2[C@H](OC)CN1C(=O)c1cccnc1SC` is 0.0596 µM; for `C/C(=N\O)c1ccc(-c2ccc(O)c(Cl)c2)c(Cl)c1O` it is 0.29 µM. As for `O=C(COc1ccc(-c2csc3ccccc23)cc1CN1CCN(c2ccccn2)CC1)NCc1nccs1`, the IC50 came out at 6.32 µM.

For `COc1ccc(-n2cc(-c3ccc(Cl)cc3)nc2NC(=O)CN(Cc2ccccc2)C(=O)c2ccc(C)cc2)cc1OC`, the IC50 is 1.89 µM. The same measure, in the same setting: the figure for `C/C(=N\O)c1ccc(-c2ccc(O)c(C)c2)c(Cl)c1O` is 7 µM. `COc1ccc(-c2ccc(O)c(/C=N/O)c2)cc1F`: the half-maximal inhibitory concentration (IC50) is 10.8 µM.

On to `CN(Cc1cccc2ncccc12)C(=O)c1cnn(-c2ncc3c(n2)-c2ccccc2CC3)c1C1CC1`, for which the IC50 was 7.07 µM.

For `COCc1c(C(=O)N2CCN(c3ccccc3)CC2)cnn1-c1ncc2c(n1)-c1ccccc1CCC2`, the half-maximal inhibitory concentration (IC50) amounted to 6.08 µM. In the case of `CC(CN1C(=O)S/C(=C\c2ccc(O)c(C(F)(F)F)c2)C1=O)(CC(F)(F)F)CC(F)(F)F`, the IC50 worked out at 11.4 µM. With `O=C(Oc1ccc2ccc(=O)oc2c1OC(=O)c1ccc(O)cc1)c1ccc(O)cc1`, the IC50 stood at 38 µM. Still for that read-out and setting: the figure for `COc1ccccc1N1CCN(C(=O)c2cnn(-c3nccc(-c4cccs4)n3)c2C2CC2)CC1` is 2.87 µM.
